Source: ChEMBL document CHEMBL1201862, “PubChem BioAssay data set” (2004)
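A five-concentration, 48-hour dose response in 96-well plates underlies each endpoint, interpolated linearly between surrounding concentrations. GI50 marks 50% less growth.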 Calls of active or inactive are those of the source. Cut-off read from the data, not from the text of the source: active = GI50 up to about 1.1 µM and inactive = higher.

How the values were obtained:
Assay in all cases: inhibition of tumour cell growth, NCI panel, 48 h
[1] = test system: SK-OV-3
[2] = test system: RPMI-8226
[3] = test system: LOX IMVI
[4] = test system: HOP-62
[5] = test system: Malme-3M
[6] = test system: OVCAR-5
[7] = test system: M14
[8] = test system: A498
[9] = test system: SF-539
[10] = test system: SK-MEL-2
[11] = test system: OVCAR-8
[12] = test system: TK-10
[13] = test system: UACC-257
[14] = test system: EKVX
[15] = test system: NCI-H522
[16] = test system: OVCAR-4
[17] = test system: OVCAR-3
[18] = test system: SR

Measured: GI50

CCN(CC)Cc1cc(Nc2c3ccccc3nc3c4ccccc4n(C)c23)ccc1O
inactive: [1] 16.7 µM | [2] 3.67 µM | [3] 2.83 µM | [4] 12 µM | [5] 13.7 µM | [6] 10.1 µM | [7] 1.92 µM | [8] 13.7 µM | [9] 3.87 µM | [10] 20.7 µM | [11] 9.25 µM | [12] 13.9 µM | [13] 10.4 µM | [14] 15.6 µM | [15] 2.58 µM | [16] 14 µM

CCCCCCCCCCCCCCCCCCOCC1(COP(=O)([O-])OCC[N+](C)(C)C)CCCO1 (stereo unspecified)
inactive: [17] 4.22 µM | [1] 14.4 µM | [2] 2.79 µM | [3] 6.43 µM | [4] 2.99 µM | [5] 13.3 µM | [6] 12.4 µM | [7] 3.14 µM | [8] 3.46 µM | [9] 15.8 µM | [10] 10.9 µM | [11] 11.2 µM | [12] 1.6 µM | [13] 13.9 µM | [15] 1.96 µM | [16] 2.83 µM

Sc1ncnc2c1ncn2C1CCCO1 (stereo unspecified)
inactive: [17] 22.6 µM | [1] 35.8 µM | [2] 99.5 µM | [3] 37.6 µM | [4] 64.4 µM | [5] > 100 µM | [6] > 100 µM | [7] 43.3 µM | [8] > 100 µM | [9] > 100 µM | [10] > 100 µM | [11] > 100 µM | [12] 89.5 µM | [15] 64.6 µM | [16] 51.1 µM

O=C1NC2C(O)CCCCC2C12CCCCC2 (stereo unspecified)
inactive: [17] > 100 µM | [1] > 100 µM | [2] > 100 µM | [3] > 100 µM | [4] > 100 µM | [5] > 100 µM | [6] > 100 µM | [7] > 100 µM | [8] > 100 µM | [9] > 100 µM | [10] > 100 µM | [11] > 100 µM | [13] > 100 µM | [14] > 100 µM | [15] > 100 µM | [16] > 100 µM

CN1C[C@@H]2CC(=O)CC[C@@H]2C[C@H]1C#N
inactive: [17] > 100 µM | [1] > 100 µM | [2] > 100 µM | [3] > 100 µM | [4] > 100 µM | [5] > 100 µM | [6] > 100 µM | [7] > 100 µM | [8] > 100 µM | [10] > 100 µM | [11] > 100 µM | [13] > 100 µM | [15] > 100 µM | [16] > 100 µM

Cc1cc2c(=O)cc(-c3ccc(C(=O)O)cc3)oc2c(C(=O)O)c1C
inactive: [17] > 100 µM | [1] > 100 µM | [2] > 100 µM | [3] > 100 µM | [4] > 100 µM | [5] > 100 µM | [6] > 100 µM | [7] > 100 µM | [9] > 100 µM | [10] > 100 µM | [11] > 100 µM | [12] > 100 µM | [13] > 100 µM | [14] > 100 µM | [15] > 100 µM | [16] > 100 µM | [18] > 100 µM

COc1ccc(Br)c(N/N=C2\CCCNC2=O)c1
inactive: [17] > 100 µM | [1] 81.3 µM | [2] 51.5 µM | [3] > 100 µM | [4] > 100 µM | [5] > 100 µM | [6] 44.6 µM | [7] > 100 µM | [9] 95.5 µM | [10] > 100 µM | [11] > 100 µM | [12] 57 µM | [13] > 100 µM | [14] 22.6 µM | [15] 58.5 µM | [16] > 100 µM | [18] 4.71 µM

CCOC(=O)C1=C(NC(C)(C)C)OCC1=O
inactive: [17] > 100 µM | [1] > 100 µM | [2] > 100 µM | [3] > 100 µM | [4] > 100 µM | [5] > 100 µM | [6] > 100 µM | [7] > 100 µM | [9] > 100 µM | [10] > 100 µM | [11] > 100 µM | [12] > 100 µM | [13] > 100 µM | [15] > 100 µM | [16] > 100 µM | [18] > 100 µM

C=C1C2CCCC1C1(S(C)(=O)=O)CCCCC21O (stereo unspecified)
inactive: [17] > 100 µM | [1] > 100 µM | [2] > 100 µM | [5] > 100 µM | [6] > 100 µM | [7] > 100 µM | [9] > 100 µM | [10] > 100 µM | [11] > 100 µM | [12] > 100 µM | [13] > 100 µM | [14] > 100 µM | [15] > 100 µM | [16] > 100 µM | [18] > 100 µM

COC(=O)[C@@]12C=CC(=O)[C@H]3C[C@@H](C(C(C)C)C1)[C@]32OC (stereo partly specified)
inactive: [17] > 100 µM | [1] > 100 µM | [2] > 100 µM | [4] > 100 µM | [5] > 100 µM | [6] > 100 µM | [7] > 100 µM | [8] > 100 µM | [9] > 100 µM | [10] > 100 µM | [11] > 100 µM | [12] > 100 µM | [13] > 100 µM | [14] > 100 µM | [16] > 100 µM

CC1(C)SCc2nc3ncccc3n21
inactive: [17] > 100 µM | [1] > 100 µM | [2] > 100 µM | [3] > 100 µM | [4] > 100 µM | [5] > 100 µM | [6] > 100 µM | [7] > 100 µM | [8] > 100 µM | [9] > 100 µM | [10] > 100 µM | [11] > 100 µM | [12] > 100 µM | [13] > 100 µM | [14] > 100 µM | [15] > 100 µM | [16] > 100 µM

Cc1ccc(C(=O)NC2CCCCC2)cc1/N=N/N(C)C
inactive: [17] > 100 µM | [3] > 100 µM | [4] > 100 µM | [7] > 100 µM | [9] > 100 µM | [10] > 100 µM | [11] > 100 µM | [12] > 100 µM | [13] > 100 µM | [14] > 100 µM | [15] 74 µM | [16] > 100 µM

CC(N)C(=O)OCN1C(=O)C2C3C=CC(C2C1=O)C1C2C(=O)N(COC(=O)C(C)N)C(=O)C2C31 (stereo unspecified)
inactive: [17] 33.6 µM | [1] 53.1 µM | [2] 23.9 µM | [3] 18.5 µM | [4] > 100 µM | [6] 47.8 µM | [7] 20.9 µM | [9] 22.9 µM | [10] 20.6 µM | [11] 22.1 µM | [12] 71.6 µM | [13] 31.4 µM | [14] > 100 µM | [16] 20.8 µM | [18] 5.57 µM
